Results published in patent US10760110B2, “Antibiotic testing and screening system” (priority 2017, dated 2020).
Like-named read-outs stand apart in the source and are kept apart here.

System: K. pneumoniae NVT1001 strains with ESBL or AmpC β-lactamase plasmids
Test: Etest MIC of β-lactams, OmpK35/36 loss, ΔramR and/or extended-spectrum β-lactamase and AmpC β-lactamase (Table 8)
Type: cell-based, Klebsiella pneumoniae
Settings: Klebsiella pneumoniae
Procedure: DNA fragments of the resistance genes along with their flanking regions were amplified from clinical plasmids via PCR with specific primer pairs. The resulting PCR fragments were digested and then cloned into the plasmid pACYC177 or pACYC184. The resulting plasmids were then transformed into K. pneumoniae strain NVT1001 via electroporation. The recombinant bacteria were plated onto LB agar plates containing kanamycin (50 mg/L) or chloramphenicol (50 mg/L), and the presence of the cloned gene was confirmed via PCR and DNA sequencing.
The MICs of antibiotics were determined using the Etest (Biodisk AB, Sweden) according to the manufacturer's instructions. The MICs from the Etest, which fall between standard two-fold dilutions, were rounded up to the next highest two-fold value. The MICs of ceftazidime and cefotaxime against K. pneumoniae NVT1001 harbouring the pACYC177 plasmid with blaOXA-48 were further determined using a broth microdilution test according to the recommendations of the CLSI,^25 and the results were interpreted according to the breakpoints established by the CLSI in 2017.^25 Meanwhile, due to the lack of CLSI breakpoints in 2016 and 2017, the results for cephalothin were interpreted according to the breakpoints established by the CLSI in 2015,^26 and the results for moxifloxacin were interpreted according to the breakpoints established by the EUCAST in 2017.^27

[1] = CMY-2 on pACYC177, WT (NVT1001), read-out: MIC
[2] = CMY-2 on pACYC177, Δ35 (ΔompK35 mutant)
[3] = CMY-2 on pACYC177, Δ35/36 (ΔompK35/36 mutant)
[4] = CMY-2 on pACYC177, Δ36 (ΔompK36 mutant)
[5] = CMY-2 on pACYC177, ΔramR mutant
[6] = CMY-2 on pACYC177, ΔramRΔ35 (ΔramRΔompK35 mutant)
[7] = CMY-2 on pACYC177, ΔramRΔ35/36 (ΔramRΔompK35/36 mutant)
[8] = CMY-2 on pACYC177, ΔramRΔ36 (ΔramRΔompK36 mutant)
[9] = CTX-M-14 on pACYC177, WT (NVT1001), read-out: MIC
[10] = CTX-M-14 on pACYC177, Δ35 (ΔompK35 mutant)
[11] = CTX-M-14 on pACYC177, Δ35/36 (ΔompK35/36 mutant)
[12] = CTX-M-14 on pACYC177, Δ36 (ΔompK36 mutant)
[13] = CTX-M-14 on pACYC177, ΔramR mutant
[14] = CTX-M-14 on pACYC177, ΔramRΔ35 (ΔramRΔompK35 mutant)
[15] = CTX-M-14 on pACYC177, ΔramRΔ35/36 (ΔramRΔompK35/36 mutant)
[16] = CTX-M-14 on pACYC177, ΔramRΔ36 (ΔramRΔompK36 mutant)
[17] = CTX-M-15 on pACYC177, WT (NVT1001), read-out: MIC
[18] = CTX-M-15 on pACYC177, Δ35 (ΔompK35 mutant)
[19] = CTX-M-15 on pACYC177, Δ35/36 (ΔompK35/36 mutant)
[20] = CTX-M-15 on pACYC177, Δ36 (ΔompK36 mutant)
[21] = CTX-M-15 on pACYC177, ΔramR mutant
[22] = CTX-M-15 on pACYC177, ΔramRΔ35 (ΔramRΔompK35 mutant)
[23] = CTX-M-15 on pACYC177, ΔramRΔ35/36 (ΔramRΔompK35/36 mutant)
[24] = CTX-M-15 on pACYC177, ΔramRΔ36 (ΔramRΔompK36 mutant)
[25] = DHA-1-AmpR on pACYC177, WT (NVT1001), read-out: MIC
[26] = DHA-1-AmpR on pACYC177, Δ35 (ΔompK35 mutant)
[27] = DHA-1-AmpR on pACYC177, Δ35/36 (ΔompK35/36 mutant)
[28] = DHA-1-AmpR on pACYC177, Δ36 (ΔompK36 mutant)
[29] = DHA-1-AmpR on pACYC177, ΔramR mutant
[30] = DHA-1-AmpR on pACYC177, ΔramRΔ35 (ΔramRΔompK35 mutant)
[31] = DHA-1-AmpR on pACYC177, ΔramRΔ35/36 (ΔramRΔompK35/36 mutant)
[32] = DHA-1-AmpR on pACYC177, ΔramRΔ36 (ΔramRΔompK36 mutant)
[33] = SHV-12 on pACYC177, WT (NVT1001), read-out: MIC
[34] = SHV-12 on pACYC177, Δ35 (ΔompK35 mutant)
[35] = SHV-12 on pACYC177, Δ35/36 (ΔompK35/36 mutant)
[36] = SHV-12 on pACYC177, Δ36 (ΔompK36 mutant)
[37] = SHV-12 on pACYC177, ΔramR mutant
[38] = SHV-12 on pACYC177, ΔramRΔ35 (ΔramRΔompK35 mutant)
[39] = SHV-12 on pACYC177, ΔramRΔ35/36 (ΔramRΔompK35/36 mutant)
[40] = SHV-12 on pACYC177, ΔramRΔ36 (ΔramRΔompK36 mutant)
[41] = no supplemental plasmid, WT (NVT1001), read-out: MIC
[42] = no supplemental plasmid, Δ35 (ΔompK35 mutant)
[43] = no supplemental plasmid, Δ35/36 (ΔompK35/36 mutant)
[44] = no supplemental plasmid, Δ36 (ΔompK36 mutant)
[45] = no supplemental plasmid, ΔramR mutant
[46] = no supplemental plasmid, ΔramRΔ35 (ΔramRΔompK35 mutant)
[47] = no supplemental plasmid, ΔramRΔ35/36 (ΔramRΔompK35/36 mutant)
[48] = no supplemental plasmid, ΔramRΔ36 (ΔramRΔompK36 mutant)

SMILES: CO/N=C(\C(=O)N[C@@H]1C(=O)N2C(C(=O)O)=C(COC(C)=O)CS[C@H]12)c1csc(N)n1 [Cefotaxime]
- MIC [1]: 64 µg/mL
- MIC [2]: 128 µg/mL
- MIC [3]: > 256 µg/mL
- MIC [4]: > 256 µg/mL
- MIC [5]: 128 µg/mL
- MIC [6]: 128 µg/mL
- MIC [7]: > 256 µg/mL
- MIC [8]: > 256 µg/mL
- MIC [9]: 64 µg/mL
- MIC [10]: 128 µg/mL
- MIC [11]: > 256 µg/mL
- MIC [12]: > 256 µg/mL
- MIC [13]: 128 µg/mL
- MIC [14]: 128 µg/mL
- MIC [15]: > 256 µg/mL
- MIC [16]: > 256 µg/mL
- MIC [17]: > 256 µg/mL
- MIC [18]: > 256 µg/mL
- MIC [19]: > 256 µg/mL
- MIC [20]: > 256 µg/mL
- MIC [21]: > 256 µg/mL
- MIC [22]: > 256 µg/mL
- MIC [23]: > 256 µg/mL
- MIC [24]: > 256 µg/mL
- MIC [25]: 8 µg/mL
- MIC [26]: 16 µg/mL
- MIC [27]: 64 µg/mL
- MIC [28]: 16 µg/mL
- MIC [29]: 16 µg/mL
- MIC [30]: 16 µg/mL
- MIC [31]: 64 µg/mL
- MIC [32]: 64 µg/mL
- MIC [33]: 32 µg/mL
- MIC [34]: 32 µg/mL
- MIC [35]: > 256 µg/mL
- MIC [36]: 32 µg/mL
- MIC [37]: 64 µg/mL
- MIC [38]: 64 µg/mL
- MIC [39]: 256 µg/mL
- MIC [40]: 256 µg/mL
- MIC [41]: 0.06 µg/mL
- MIC [42]: 0.125 µg/mL
- MIC [43]: 2 µg/mL
- MIC [44]: 0.25 µg/mL
- MIC [45]: 1 µg/mL
- MIC [46]: 1 µg/mL
- MIC [47]: 4 µg/mL
- MIC [48]: 4 µg/mL

SMILES: C[C@H]1[C@H](NC(=O)/C(=N\OC(C)(C)C(=O)O)c2csc(N)n2)C(=O)N1S(=O)(=O)O [Aztreonam]
- MIC [1]: 64 µg/mL
- MIC [2]: 128 µg/mL
- MIC [3]: 256 µg/mL
- MIC [4]: 64 µg/mL
- MIC [5]: 64 µg/mL
- MIC [6]: 64 µg/mL
- MIC [7]: 64 µg/mL
- MIC [8]: 64 µg/mL
- MIC [9]: 2 µg/mL
- MIC [10]: 16 µg/mL
- MIC [11]: 32 µg/mL
- MIC [12]: 2 µg/mL
- MIC [13]: 16 µg/mL
- MIC [14]: 16 µg/mL
- MIC [15]: 32 µg/mL
- MIC [16]: 16 µg/mL
- MIC [17]: 256 µg/mL
- MIC [18]: > 256 µg/mL
- MIC [19]: > 256 µg/mL
- MIC [20]: > 256 µg/mL
- MIC [21]: > 256 µg/mL
- MIC [22]: > 256 µg/mL
- MIC [23]: > 256 µg/mL
- MIC [24]: > 256 µg/mL
- MIC [25]: 1 µg/mL
- MIC [26]: 8 µg/mL
- MIC [27]: 16 µg/mL
- MIC [28]: 1 µg/mL
- MIC [29]: 4 µg/mL
- MIC [30]: 4 µg/mL
- MIC [31]: 8 µg/mL
- MIC [32]: 8 µg/mL
- MIC [33]: 128 µg/mL
- MIC [34]: > 256 µg/mL
- MIC [35]: > 256 µg/mL
- MIC [36]: 128 µg/mL
- MIC [37]: > 256 µg/mL
- MIC [38]: > 256 µg/mL
- MIC [39]: > 256 µg/mL
- MIC [40]: > 256 µg/mL
- MIC [41]: 0.03 µg/mL
- MIC [42]: 0.25 µg/mL
- MIC [43]: 0.5 µg/mL
- MIC [44]: 0.06 µg/mL
- MIC [45]: 0.5 µg/mL
- MIC [46]: 0.5 µg/mL
- MIC [47]: 1 µg/mL
- MIC [48]: 1 µg/mL

SMILES: C[C@@H](O)[C@H]1C(=O)N2C(C(=O)O)=C(SCCN=CN)C[C@H]12 [Imipenem]
- MIC [1]: 1 µg/mL
- MIC [2]: 1 µg/mL
- MIC [3]: > 32 µg/mL
- MIC [4]: 4 µg/mL
- MIC [5]: 1 µg/mL
- MIC [6]: 1 µg/mL
- MIC [7]: 32 µg/mL
- MIC [8]: 32 µg/mL
- MIC [9]: 0.5 µg/mL
- MIC [10]: 0.5 µg/mL
- MIC [11]: 1 µg/mL
- MIC [12]: 0.5 µg/mL
- MIC [13]: 0.25 µg/mL
- MIC [14]: 0.25 µg/mL
- MIC [15]: 0.5 µg/mL
- MIC [16]: 0.5 µg/mL
- MIC [17]: 0.5 µg/mL
- MIC [18]: 0.5 µg/mL
- MIC [19]: 4 µg/mL
- MIC [20]: 0.5 µg/mL
- MIC [21]: 0.5 µg/mL
- MIC [22]: 0.25 µg/mL
- MIC [23]: 2 µg/mL
- MIC [24]: 2 µg/mL
- MIC [25]: 0.5 µg/mL
- MIC [26]: 0.5 µg/mL
- MIC [27]: 32 µg/mL
- MIC [28]: 0.5 µg/mL
- MIC [29]: 0.25 µg/mL
- MIC [30]: 0.25 µg/mL
- MIC [31]: 16 µg/mL
- MIC [32]: 16 µg/mL
- MIC [33]: 0.5 µg/mL
- MIC [34]: 0.5 µg/mL
- MIC [35]: 1 µg/mL
- MIC [36]: 0.5 µg/mL
- MIC [37]: 0.25 µg/mL
- MIC [38]: 0.25 µg/mL
- MIC [39]: 1 µg/mL
- MIC [40]: 0.5 µg/mL
- MIC [41]: 0.5 µg/mL
- MIC [42]: 0.5 µg/mL
- MIC [43]: 0.5 µg/mL
- MIC [44]: 0.5 µg/mL
- MIC [45]: 0.25 µg/mL
- MIC [46]: 0.25 µg/mL
- MIC [47]: 0.5 µg/mL
- MIC [48]: 0.5 µg/mL
